We go through two compounds from patent US20080261896A1, “Testosterone generating and metabolizing enhancer” (Sinphar Pharmaceutical Co., Ltd., priority 2007, published 2008).

The experiment concerns mouse Leydig tumor cell line R2C. As to the kind of experiment: Test 1: testosterone generation of the mouse Leydig tumor cell line R2C (Testosterone EIA kit). The class given is cell-based. As to conditions: R2C cells. The source says: Test 1: Testing testosterone generation of the mouse Leydig tumor cell line R2C.
Materials: The extract of C. tubulosa prepared in the aforesaid first embodiment, and said echinacoside and acteoside used in the second and the third embodiments. The mouse Leydig tumor cell line R2C was obtained from the Japan Health Sciences Foundation (Osaka), and a Testosterone EIA testing kit was used to test testosterone levels.
Method: The R2C cells were subcultured in a cell medium called Ham's F10, which comprised 15% bovine serum, 2.5% fetal bovine serum, 100 units/mL penicillin G, and 100 μg/mL streptomycin. The cells were inoculated on a 24-hole plate at a density of 5×10^5 cells/mL, and 500 μL of the cell medium was added into each hole. After culturing for 24 hours, 50 μL of solutions resulted from dissolving samples from the first to the third embodiments in the same cell medium was added into each hole. After culturing for another 4 fours, the cells were collected along with the cell medium and subjected to centrifugation, so as to collect supernatant that included the cell medium. The Testosterone EIA testing kit (manufactured by Cayman Chemical Corporate) was used to determine testosterone concentrations in the each tested sample, and the results were shown in FIG. 1.

On to `C[C@@H]1O[C@@H](O[C@@H]2[C@@H](O)[C@H](OCCc3ccc(O)c(O)c3)O[C@H](CO)[C@H]2OC(=O)/C=C/c2ccc(O)c(O)c2)[C@H](O)[C@H](O)[C@H]1O` [acteoside], for which the “testosterone generation (testosterone level in the supernatant) versus control” value was “increased” (10 μg/mL) and “increased” (100 μg/mL).
Take `C[C@@H]1O[C@@H](O[C@@H]2[C@@H](O)[C@H](OCCc3ccc(O)c(O)c3)O[C@H](CO[C@@H]3O[C@H](CO)[C@@H](O)[C@H](O)[C@H]3O)[C@H]2OC(=O)/C=C/c2ccc(O)c(O)c2)[C@H](O)[C@H](O)[C@H]1O` [echinacoside]: the “testosterone generation (testosterone level in the supernatant) versus control” value reads like this: (10 μg/mL) “increased”; (30 μg/mL) “increased”; (100 μg/mL) “increased to twice as much as that of the control”.
